What all share (type): biochemical
One assay concerns the target T1, CDK1/cyclinB1 (Homo sapiens, UniProt P06493).
T1 construct: purchased Carna Biosciences 04-102
The assay is described as follows: Cyclin-dependent kinase activity assay (continuous ATP coupling assay), CDK1/cyclinB1. The note with it: CDK1/cyclinB1 10 nM, ATP 200 μM, Histone1 copeptide 100 μM, 15 min preincubation, pH 7.5, 1% DMSO. A digest of the protocol: (§1)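 PK/LDH-coupled continuous assay, ATP at each kinase's Km, Tris pH 7.5 with 1% DMSO final; enzyme preincubated 15 min with compound (10 μM to 0.05 nM, 1:3), NADH fluorescence decrease (ex 340/em 460) gave velocities. IC50 by 4-variable fit; Ki by quadratic/Morrison fit.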

Another assay deals with T2, CDK4/cyclinD3 (Homo sapiens, UniProt P11802).
T2 construct: purchased Carna Biosciences 04-105
The assay is described as follows: Cyclin-dependent kinase activity assay (continuous ATP coupling assay), CDK4/cyclinD3. The note with it: CDK4/cyclinD3 60 nM, ATP 500 μM, Rb copeptide 500 μM, 15 min preincubation, pH 7.5, 1% DMSO. A digest of the protocol:
as §1

The next assay concerns the target T3, CDK6/cyclinD3 (Homo sapiens, UniProt Q00534).
T3 construct: purchased Carna Biosciences 04-107
The assay can be described thus: Cyclin-dependent kinase activity assay (continuous ATP coupling assay), CDK6/cyclinD3. The note with it: CDK6/cyclinD3 25 nM, ATP 500 μM, Rb copeptide 500 μM, 15 min preincubation, pH 7.5, 1% DMSO. A digest of the protocol:
as §1

The target of another assay is T4, CDK2/cyclinE1 (Homo sapiens, UniProt P24941).
T4 construct: purchased Carna Biosciences 04-165
The assay is described as follows: Cyclin-dependent kinase activity assay (continuous ATP coupling assay), CDK2/cyclinE1. As to conditions: CDK2/cyclinE1 5 nM, ATP 300 μM, Rb copeptide 100 μM, 15 min preincubation, pH 7.5, 1% DMSO. A digest of the protocol:
as §1

A word on the IC50: it is the concentration needed to halve the response being measured. Higher therefore signals lower potency.

T3 sequence (Q00534 whole entry): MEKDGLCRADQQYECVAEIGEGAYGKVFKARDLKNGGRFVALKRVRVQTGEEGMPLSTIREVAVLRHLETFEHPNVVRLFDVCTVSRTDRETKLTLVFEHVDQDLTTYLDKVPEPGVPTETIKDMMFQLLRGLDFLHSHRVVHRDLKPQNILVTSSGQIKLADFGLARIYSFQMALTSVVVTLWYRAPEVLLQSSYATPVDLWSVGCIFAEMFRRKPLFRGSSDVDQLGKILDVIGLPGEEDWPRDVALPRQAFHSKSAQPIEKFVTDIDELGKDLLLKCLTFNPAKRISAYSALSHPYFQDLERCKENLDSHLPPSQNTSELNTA
T3 sequence (P30281 whole entry partner): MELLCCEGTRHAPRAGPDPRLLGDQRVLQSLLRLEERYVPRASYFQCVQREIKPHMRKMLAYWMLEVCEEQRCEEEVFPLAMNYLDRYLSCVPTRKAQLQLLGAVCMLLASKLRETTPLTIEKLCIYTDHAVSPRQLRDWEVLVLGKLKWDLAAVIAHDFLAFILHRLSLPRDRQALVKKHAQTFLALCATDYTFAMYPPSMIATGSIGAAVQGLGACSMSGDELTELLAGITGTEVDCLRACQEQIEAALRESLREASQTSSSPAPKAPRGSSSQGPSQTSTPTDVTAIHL
T2 sequence (P11802 whole entry): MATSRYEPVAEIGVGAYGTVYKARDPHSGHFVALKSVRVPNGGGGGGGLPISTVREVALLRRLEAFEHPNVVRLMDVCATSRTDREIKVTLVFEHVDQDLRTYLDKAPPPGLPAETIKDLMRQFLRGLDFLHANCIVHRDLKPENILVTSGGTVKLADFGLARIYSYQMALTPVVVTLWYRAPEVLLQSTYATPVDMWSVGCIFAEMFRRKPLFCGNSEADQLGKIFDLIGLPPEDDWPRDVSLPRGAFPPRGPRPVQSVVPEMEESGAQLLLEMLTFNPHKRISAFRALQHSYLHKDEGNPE
T2 sequence (P30281 whole entry partner): as the sequence (P30281 whole entry partner) above
T1 sequence (P06493 whole entry): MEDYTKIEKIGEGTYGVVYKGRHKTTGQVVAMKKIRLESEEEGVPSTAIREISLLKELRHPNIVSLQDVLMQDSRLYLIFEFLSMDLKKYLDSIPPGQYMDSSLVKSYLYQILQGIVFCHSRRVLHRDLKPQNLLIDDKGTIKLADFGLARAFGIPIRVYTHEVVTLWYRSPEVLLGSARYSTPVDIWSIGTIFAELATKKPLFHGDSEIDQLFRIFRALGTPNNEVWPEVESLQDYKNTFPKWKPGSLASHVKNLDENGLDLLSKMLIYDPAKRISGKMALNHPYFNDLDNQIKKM
T1 sequence (P14635 whole entry partner): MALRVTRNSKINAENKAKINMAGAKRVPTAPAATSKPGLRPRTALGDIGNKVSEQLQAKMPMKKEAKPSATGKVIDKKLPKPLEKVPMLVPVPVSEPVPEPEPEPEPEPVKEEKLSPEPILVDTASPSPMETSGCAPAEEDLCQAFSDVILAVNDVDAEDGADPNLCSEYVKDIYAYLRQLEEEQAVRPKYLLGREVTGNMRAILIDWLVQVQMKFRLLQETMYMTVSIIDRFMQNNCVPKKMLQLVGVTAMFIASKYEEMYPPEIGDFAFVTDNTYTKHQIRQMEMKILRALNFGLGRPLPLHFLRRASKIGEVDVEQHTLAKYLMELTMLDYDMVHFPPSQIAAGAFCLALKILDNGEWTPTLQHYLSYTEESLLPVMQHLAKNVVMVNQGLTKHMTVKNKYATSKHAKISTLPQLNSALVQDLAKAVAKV

As to `CNS(=O)(=O)c1ccc(Nc2ncc(C(F)(F)F)c(-n3cc(Br)cn3)n2)cc1` [Example 44], the IC50 was no less than 100 nM against CDK1/cyclinB1, no less than 100 nM on CDK4/cyclinD3, no less than 100 nM against CDK6/cyclinD3 and 10 to 100 nM against CDK2/cyclinE1.
As to `[2H]C([2H])([2H])NS(=O)(=O)c1ccc(Nc2ncc(C(F)(F)F)c(-n3cc(CCO)cn3)n2)cc1` [Example 10], the 50% inhibitory concentration (IC50) on CDK1/cyclinB1 is 10 to 100 nM; against CDK4/cyclinD3, 10 to 100 nM; at CDK6/cyclinD3, 10 to 100 nM; against CDK2/cyclinE1, no more than 10 nM.
`CNS(=O)(=O)c1ccc(Nc2ncc(C(F)(F)F)c(-n3cc(C4CCNC4)cn3)n2)cc1` (single isomer, unassigned) [Example 93]: the IC50 at CDK1/cyclinB1 is 10 to 100 nM; against CDK4/cyclinD3, 10 to 100 nM; on CDK6/cyclinD3, no less than 100 nM; against CDK2/cyclinE1, no more than 10 nM.
Turning to `O=S(=O)(NCCCO)c1ccc(Nc2ncc(C(F)(F)F)c(-n3cccn3)n2)cc1` [Example 112], the IC50 against CDK1/cyclinB1 is no less than 100 nM; against CDK4/cyclinD3, no less than 100 nM; on CDK6/cyclinD3 it was no less than 100 nM; against CDK2/cyclinE1 it was no more than 10 nM.
In the case of `CNS(=O)(=O)c1ccc(Nc2ncc(C(F)(F)F)c(-n3cc(N4CCCC4=O)cn3)n2)cc1` [Example 88, N-methyl-4-[[4-[4-(2-oxopyrrolidin-1-yl)pyrazol-1-yl]-5-(trifluoromethyl)pyrimidin-2-yl]amino]benzene sulfonamide], the IC50 was no less than 100 nM at CDK1/cyclinB1, no less than 100 nM against CDK4/cyclinD3, no less than 100 nM against CDK6/cyclinD3 and 10 to 100 nM against CDK2/cyclinE1.
Regarding `COCCNS(=O)(=O)c1ccc(Nc2ncc(C(F)(F)F)c(-n3cccn3)n2)cc1` [Example 127], the IC50 at CDK1/cyclinB1 was no less than 100 nM; at CDK4/cyclinD3, no less than 100 nM; against CDK6/cyclinD3, no less than 100 nM; on CDK2/cyclinE1, 10 to 100 nM.
For `CNS(=O)(=O)c1ccc(Nc2ncc(Br)c(-n3cccn3)n2)cc1` [Example 25], the IC50 on CDK1/cyclinB1 is no less than 100 nM; on CDK4/cyclinD3 it was no less than 100 nM; at CDK6/cyclinD3, no less than 100 nM; at CDK2/cyclinE1 it was no more than 10 nM.
Consider `CC(C)(O)CCc1cnn(-c2nc(NC3CCN(S(C)(=O)=O)CC3)ncc2C(F)(F)F)c1` [Example 109], for which the IC50 was no less than 100 nM at CDK1/cyclinB1, 10 to 100 nM at CDK4/cyclinD3, 10 to 100 nM against CDK6/cyclinD3 and 10 to 100 nM on CDK2/cyclinE1.
In the case of `CNS(=O)(=O)c1ccc(Nc2ncc(C(F)(F)F)c(-n3cc(F)cn3)n2)cc1` [Example 45], the IC50 is no less than 100 nM at CDK1/cyclinB1, no less than 100 nM at CDK4/cyclinD3, no less than 100 nM on CDK6/cyclinD3 and 10 to 100 nM at CDK2/cyclinE1.
On to `CNS(=O)(=O)c1ccc(Nc2ncc(C(F)(F)F)c(-n3cc(C4CCN(S(C)(=O)=O)CC4)cn3)n2)cc1` [Example 81], for which the IC50 at CDK1/cyclinB1, at CDK4/cyclinD3, at CDK6/cyclinD3 and against CDK2/cyclinE1 was 10 to 100 nM each time.
For the compound `CC1(Nc2ncc(C(F)(F)F)c(-n3cccn3)n2)CCN(S(C)(=O)=O)CC1` [Example 29], the IC50 on CDK1/cyclinB1, against CDK4/cyclinD3, on CDK6/cyclinD3 and at CDK2/cyclinE1 was no less than 100 nM in each case.
Consider `O=S(=O)(NCCO)c1ccc(Nc2ncc(C(F)(F)F)c(-n3cccn3)n2)cn1` [Example 136, N-(2-hydroxyethyl)-5-[[4-pyrazol-1-yl-5-(trifluoromethyl)pyrimidin-2-yl]amino]pyridine-2-sulfonamide], for which the IC50 was no less than 100 nM against CDK1/cyclinB1, no less than 100 nM against CDK4/cyclinD3, no less than 100 nM against CDK6/cyclinD3 and no more than 10 nM against CDK2/cyclinE1.
With `CNS(=O)(=O)c1ccc(Nc2ncc(C(F)(F)F)c(-n3nccc3C3CC3)n2)cc1` [Example 57], the IC50 is no less than 100 nM against CDK1/cyclinB1, no less than 100 nM against CDK4/cyclinD3, no less than 100 nM at CDK6/cyclinD3 and 10 to 100 nM on CDK2/cyclinE1.

The values above are taken from US20260308145A1, “CDK2 INHIBITORS AND METHODS OF USING SAME” (Shenzhen lonova Life Science Co., Ltd., priority 2023, published 2026).
